What is called IC50 is the point on the concentration scale where inhibition reaches its midpoint. A high value points to a need for much substance.

This assay has as its target HIV-1 PR (Human immunodeficiency virus type 1 group M subtype B, UniProt P04585). Briefly: HIV-protease inhibitory activity assay (FRET peptide substrate). Type of assay: biochemical. The note with it: Test Example 1. A digest of the protocol:
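Fluorescence recovery at ex 485/em 535 nm reports cleavage of a quenched FRET peptide (2 μmol/L final) by 0.83 ng enzyme over 60 minutes at room temperature. Buffer was NaAc pH 4.8 with NaCl, EDTA, DTT and Tween 20. IC50 values came from four-parameter logistic regression of % inhibition.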
On to `COc1ccc(S(=O)(=O)N(CC(C)C)CC(O)C(Cc2ccc(NCc3ccccc3-c3c(C(=O)O)[nH]c4ccc(Cl)cc34)cc2)NC(=O)OC2COC3(C)OCCC23)cc1` (stereo not drawn) [Compound I-661], for which half-maximal inhibition (IC50) required 2.35 nM.
`COc1ccc(S(=O)(=O)N(CC(C)C)CC(O)C(Cc2ccc(NCc3ccc(N4CC(C)(C)C4=O)cc3-c3sc4c(c3C(=O)O)CC(C)(C)CC4)cc2)NC(=O)OC2COC3(C)OCCC23)cc1` (stereo not drawn) [Compound I-740] returned an IC50 of 1.6 nM.
The compound `COc1ccc(S(=O)(=O)N(CC(C)C)CC(O)C(Cc2ccc(N3C(=O)c4ccc(-c5sc6c(c5C(=O)O)CC(C)(C)CC6)cc4C3=O)cc2)NC(=O)OC2COC3(C)OCCC23)cc1` (stereo not drawn) [Compound I-621] had an IC50 of 1.84 nM.
For the compound `COc1ccc(S(=O)(=O)N(CC(C)C)CC(O)C(Cc2ccc(COc3ccc4c(c3C(=O)O)CC(C)(C)CC4)cc2)NC(=O)OC2COC3OCCC23)cc1` (stereo not drawn) [Compound I-811], the IC50 was determined as 0.81 nM.
Regarding `COc1ccc(S(=O)(=O)N(CC(C)C)CC(O)C(Cc2ccc(NCc3nc(N4CCC4)sc3-c3sc4c(c3C(=O)O)CC(C)(C)CC4)cc2)NC(=O)OC2COC3(C)OCCC23)cc1` (stereo not drawn) [Compound I-753], the IC50 worked out at 2.39 nM.
The compound `COc1ccc(S(=O)(=O)N(CC(C)C)CC(O)C(Cc2ccc(N(C)Cc3ccccc3-c3ccc(NC(=O)CC4CC(C)(C)CCC4=O)cc3)cc2)NC(=O)OC2COC3(C)OCCC23)cc1` (stereo not drawn) [Compound I-772] came in with an IC50 of 21 nM.
The same measure for `COc1ccc(S(=O)(=O)N(CC(C)C)CC(O)C(Cc2ccc(NCc3cc(Oc4ccccc4)ccc3-c3sc4c(c3C(=O)O)CC(C)(C)CC4)cc2)NC(=O)OC2COC3(C)OCCC23)cc1` (stereo not drawn) [Compound I-654]: 8.75 nM.
The same measure for `COc1ccc(S(=O)(=O)N(CC(C)C)CC(O)C(Cc2ccc(N(C)CCn3nc4c(c3C(=O)O)CC(C)(C)CC4)cc2)NC(=O)OC2COC3(C)OCCC23)cc1` (stereo not drawn) [Compound I-517]: 2.56 nM; for `COc1ccc(S(=O)(=O)N(CC(C)C)CC(O)C(Cc2ccc(N(C)CC3CCCCC3C(=O)Nc3sc4c(c3C(=O)O)CC(C)(C)CC4)cc2)NC(=O)OC2COC3(C)OCCC23)cc1` (stereo not drawn) [Compound I-629]: 2.35 nM; for `COc1ccc(S(=O)(=O)N(CC(C)C)CC(O)C(Cc2ccc(N(C)Cc3ccc(C)cc3C(=O)Nc3sc4c(c3C(=O)O)CC(C)(C)CC4)cc2)NC(=O)OC2COC3(C)OCCC23)cc1` (stereo not drawn) [Compound I-745]: 3.39 nM.
For `CC(C)CN(C[C@@H](O)[C@H](Cc1ccc(OCc2ccccc2-c2sc3c(c2C(=O)O)CC(C)(C)CC3)cc1)NC(=O)O[C@H]1CO[C@@]2(C)OCC[C@@H]12)S(=O)(=O)c1ccc(N)c(/C=C/C(N)=O)c1` [Compound I-16] the value was 2.22 nM; for `COc1ccc(S(=O)(=O)N(CC(C)C)CC(O)C(Cc2ccc(NCc3ccccc3-c3c(C(=O)O)c4ccccc4n3C)cc2)NC(=O)OC2COC3(C)OCCC23)cc1` (stereo not drawn) [Compound I-411], 1.3 nM; for `CC(C)CN(CC(O)C(Cc1ccccc1)NC(=O)OC1COC2OCCC12)S(=O)(=O)c1ccc(NCc2sc3c(c2C(=O)O)CC(C)(C)CC3)cc1` (stereo not drawn) [Compound I-816], 5.78 nM.
Consider `COc1ccc(S(=O)(=O)N(CC(C)C)CC(O)C(Cc2ccc(N(C)CC3CC(C)(C)CCC3c3sc4c(c3C(=O)O)CC(C)(C)CC4)cc2)NC(=O)OC2COC3(C)OCCC23)cc1` (stereo not drawn) [Compound I-769], for which the IC50 came out at 5.98 nM.
For `COc1ccc(S(=O)(=O)N(CC(C)C)CC(O)C(Cc2ccc(OCc3ccccc3-n3nc4c(c3C(=O)O)Cc3ccccc3-4)cc2)NC(=O)OC2COC3(C)OCCC23)cc1` (stereo not drawn) [Compound I-143] the value was 0.99 nM.
The same measure for `COc1ccc(S(=O)(=O)N(CC(C)C)CC(O)C(Cc2ccc(NCc3ccccc3-c3cnc(-c4sc5c(c4C(=O)O)CC(C)(C)CC5)nc3)cc2)NC(=O)OC2COC3(C)OCCC23)cc1` (stereo not drawn) [Compound I-712]: 2.02 nM; for `COc1ccc(S(=O)(=O)N(CC(C)C)CC(O)C(Cc2ccc(NCc3ccccc3-c3ccsc3C(=O)O)cc2)NC(=O)OC2COC3(C)OCCC23)cc1` (stereo not drawn) [Compound I-498]: 1.83 nM; for `COc1ccc(S(=O)(=O)N(CC(C)C)CC(O)C(Cc2ccc(OCc3ccccc3-c3ccc4c(O)c(-c5ccc(F)cc5)c(=O)n(-c5ccccc5)c4c3)cc2)NC(=O)OC2COC3(C)OCCC23)cc1` (stereo not drawn) [Compound I-75]: 1.19 nM.
For `COc1ccc(S(=O)(=O)N(CC(C)C)CC(O)C(Cc2ccc(NCc3ncccc3C(=O)Nc3sc4c(c3C(=O)O)CC(C)(C)CC4)cc2)NC(=O)OC2COC3(C)OCCC23)cc1` (stereo not drawn) [Compound I-687] the value was 2.48 nM.
The compound `COc1ccc(S(=O)(=O)N(CC(C)C)CC(O)C(Cc2ccc(NCc3nc(N(C4CCCCC4)C4CCCCC4)sc3-c3sc4c(c3C(=O)O)CC(C)(C)CC4)cc2)NC(=O)OC2COC3(C)OCCC23)cc1` (stereo not drawn) [Compound I-760] yielded an IC50 of 3.38 nM.
For `CC1(C)CCc2sc(-c3ccc(C(F)(F)F)cc3CNc3ccc(CC(NC(=O)OC4COC5OCCC45)C(O)CN(CC4CCCC4)S(=O)(=O)c4ccc5c(c4)OCO5)cc3)c(C(=O)O)c2C1` (stereo not drawn) [Compound I-876] the value was 7.13 nM; for `COc1ccc(S(=O)(=O)N(CC(C)C)CC(O)C(Cc2ccc(N3CCC(C(=O)Nc4ccccc4-c4sc5c(c4C(=O)O)CC(C)(C)CC5)C3)cc2)NC(=O)OC2COC3(C)OCCC23)cc1` (stereo not drawn) [Compound I-672], 2.05 nM.
The same measure for `COc1ccc(S(=O)(=O)N(CC(C)C)CC(O)C(Cc2ccc(NCc3ccccc3-c3c(C(=O)O)cnc4onc(C)c34)cc2)NC(=O)OC2COC3(C)OCCC23)cc1` (stereo not drawn) [Compound I-505]: 1.55 nM; for `CC(C)CN(CC(O)C(Cc1ccc(NCc2ccccc2C(=O)Nc2sc3c(c2C(=O)O)CC(C)(C)CC3)cc1)NC(=O)OC1COC2OCCC12)S(=O)(=O)c1ccc2c(c1)OCO2` (stereo not drawn) [Compound I-854]: 3.16 nM; for `COc1ccc(S(=O)(=O)N(CC(C)C)C[C@@H](O)[C@H](Cc2ccc(NC[C@@H]3CCCC[C@@H]3c3sc4c(c3C(=O)O)CC(C)(C)CC4)cc2)NC(=O)O[C@H]2CO[C@@]3(C)OCC[C@@H]23)cc1` [Compound I-246]: 2.07 nM.
In the case of `COc1ccc(S(=O)(=O)N(CC(C)C)CC(O)C(Cc2ccc(NCc3ccccc3-c3c(C(=O)O)[nH]c4cc(OC)ccc34)cc2)NC(=O)OC2COC3(C)OCCC23)cc1` (stereo not drawn) [Compound I-634], the IC50 amounted to 2.26 nM.
Turning to `COc1ccc(S(=O)(=O)N(CC(C)C)CC(O)C(Cc2ccc(N3CCC(c4ccccc4-c4sc5c(c4C(=O)O)CC(C)(C)CC5)C3)cc2)NC(=O)OC2COC3(C)OCCC23)cc1` (stereo not drawn) [Compound I-523], half-maximal inhibition (IC50) required 9.44 nM.
As for `COc1ccc(S(=O)(=O)N(CC(C)C)CC(O)C(Cc2ccc(N(CCC(F)(F)F)Cc3ccccc3-c3sc4c(c3C(=O)O)CC(C)(C)CC4)cc2)NC(=O)OC2COC3(C)OCCC23)cc1` (stereo not drawn) [Compound I-430], the IC50 was determined as 17.5 nM.
Take `CC1(C)CCc2sc(-c3ccc(C(F)(F)F)cc3CNc3ccc(CC(NC(=O)OC4COC5OCCC45)C(O)CN(CC4CCC4)S(=O)(=O)c4ccc5c(c4)OCO5)cc3)c(C(=O)O)c2C1` (stereo not drawn) [Compound I-875]: it took 6.78 nM to reach half-maximal inhibition (IC50).
The compound `COc1ccc(S(=O)(=O)N(CC(C)C)CC(O)C(Cc2ccc(NCc3cccc(C)c3C(=O)Nc3sc4c(c3C(=O)O)CC(C)(C)CC4)cc2)NC(=O)OC2COC3(C)OCCC23)cc1` (stereo not drawn) [Compound I-718] showed an IC50 of 3.97 nM.
With `COc1ccc(S(=O)(=O)N(CC(C)C)CC(O)C(Cc2ccc(NCc3nc4ccccc4cc3C(=O)Nc3sc4c(c3C(=O)O)CC(C)(C)CC4)cc2)NC(=O)OC2COC3OCCC23)cc1` (stereo not drawn) [Compound I-885], half-maximal inhibition (IC50) was put at 3.48 nM.
`COc1ccc(S(=O)(=O)N(CC(C)C)CC(O)C(Cc2ccc(N(C)Cc3ccc(Cl)cc3C(=O)Nc3sc4c(c3C(=O)O)CC(C)(C)CC4)cc2)NC(=O)OC2COC3(C)OCCC23)cc1` (stereo not drawn) [Compound I-659] showed an IC50 of 9.51 nM.
The same measure for `COc1ccc(S(=O)(=O)N(CC(C)C)CC(O)C(Cc2ccc(NCC3CCCCN3C(=O)c3sc4c(c3C(=O)O)CC(C)(C)CC4)cc2)NC(=O)OC2COC3(C)OCCC23)cc1` (stereo not drawn) [Compound I-605]: 1.96 nM; for `CC(C)CN(CC(O)C(Cc1ccc(OC(C(=O)O)c2ccc(-c3ccc(F)cc3F)cc2)cc1)NC(=O)OC1COC2(C)OCCC12)S(=O)(=O)c1ccc2ncsc2c1` (stereo not drawn) [Compound I-154]: 1.87 nM.
The compound `COc1ccc(S(=O)(=O)N(CC(C)C)CC(O)C(Cc2ccc(N3CC4CC(Oc5ccccc5-c5sc6c(c5C(=O)O)CC(C)(C)CC6)CC4C3)cc2)NC(=O)OC2COC3(C)OCCC23)cc1` (stereo not drawn) [Compound I-508] gave an IC50 of 8.48 nM.
`COc1ccc(S(=O)(=O)N(CC(C)C)CC(O)C(Cc2ccc(OCc3ccccc3-c3sc(Cl)c(-c4ccccc4)c3C(=O)O)cc2)NC(=O)OC2COC3OCCC23)cc1` (stereo not drawn) [Compound I-849] registered an IC50 of 0.78 nM.
The compound `COc1ccc(S(=O)(=O)N(CC(C)C)CC(O)C(Cc2ccc(NCc3cc(Oc4cccnc4)ccc3-c3sc4c(c3C(=O)O)CC(C)(C)CC4)cc2)NC(=O)OC2COC3(C)OCCC23)cc1` (stereo not drawn) [Compound I-688] gave an IC50 of 2.59 nM.
The same measure for `COc1ccc(S(=O)(=O)N(CC(C)C)CC(O)C(Cc2ccc(N3CCc4nc(-c5sc6c(c5C(=O)O)CC(C)(C)CC6)sc4C3)cc2)NC(=O)OC2COC3(C)OCCC23)cc1` (stereo not drawn) [Compound I-225]: 2.31 nM; for `COc1ccc(S(=O)(=O)N(CC(C)C)CC(O)C(Cc2ccc(N(Cc3ccccc3-c3sc4c(c3C(=O)O)CC(C)(C)CC4)CC3CC3)cc2)NC(=O)OC2COC3(C)OCCC23)cc1` (stereo not drawn) [Compound I-460]: 3.58 nM; for `COc1ccc(S(=O)(=O)N(CC(C)C)CC(O)C(Cc2ccc(NCc3cc(C(F)(F)F)ccc3C(=O)Nc3sc4c(c3C(=O)O)CC(C)(C)CC4)cc2)NC(=O)OC2COC3(C)OCCC23)cc1` (stereo not drawn) [Compound I-691]: 6.44 nM.
In turn, `COc1ccc(S(=O)(=O)N(CC(C)C)CC(O)C(Cc2ccc(Nc3ccc(-c4sc5c(c4C(=O)O)CC(C)(C)CC5)cc3)cc2)NC(=O)OC2COC3(C)OCCC23)cc1` (stereo not drawn) [Compound I-468] showed an IC50 of 5.6 nM.
In turn, `COc1ccc(S(=O)(=O)N(CC(C)C)CC(O)C(Cc2ccc(NCC3CC(C)(C)CCC3c3sc4c(c3C(=O)O)CC(C)(C)CC4)cc2)NC(=O)OC2COC3(C)OCCC23)cc1` (stereo not drawn) [Compound I-765] came in with an IC50 of 2.96 nM.

For the origin of these results see patent US20170253607A1, “LONG-ACTING HIV PROTEASE INHIBITOR” (Shionogi & Co., Ltd., priority 2014, published 2017).
